According to ChEMBL document CHEMBL1909046, “DrugMatrix in vitro pharmacology data”:

Columns and labels:
[1] = DRUGMATRIX: Calcium Channel Type L, Dihydropyridine radioligand binding (ligand: [3H] Nitrendipine); type: cell membranes, Rattus norvegicus, Wistar, Cerebral cortex, Membrane; conditions: Not Active = under 50% inhibition at 10 µM
[2] = DRUGMATRIX: GABAA, Flunitrazepam, Central radioligand binding (ligand: [3H] Flunitrazepam); type: cell membranes, Rattus norvegicus, Wistar, Brain, Membrane; conditions: Not Active = under 50% inhibition at 10 µM
[3] = DRUGMATRIX: GABAA, Chloride Channel, TBOB radioligand binding (ligand: [3H] TBOB); type: cell membranes, Rattus norvegicus, Wistar, Cerebral cortex, Membrane; conditions: Not Active = under 50% inhibition at 10 µM
[4] = target: T1, Muscarinic acetylcholine receptor M5 (Homo sapiens, UniProt P08912); type: cell membranes, CHO-K1, Membrane; conditions: cho-k1; note: in other assays of this panel Not Active means under 50% inhibition at 10 µM
T1 sequence (P08912 whole entry): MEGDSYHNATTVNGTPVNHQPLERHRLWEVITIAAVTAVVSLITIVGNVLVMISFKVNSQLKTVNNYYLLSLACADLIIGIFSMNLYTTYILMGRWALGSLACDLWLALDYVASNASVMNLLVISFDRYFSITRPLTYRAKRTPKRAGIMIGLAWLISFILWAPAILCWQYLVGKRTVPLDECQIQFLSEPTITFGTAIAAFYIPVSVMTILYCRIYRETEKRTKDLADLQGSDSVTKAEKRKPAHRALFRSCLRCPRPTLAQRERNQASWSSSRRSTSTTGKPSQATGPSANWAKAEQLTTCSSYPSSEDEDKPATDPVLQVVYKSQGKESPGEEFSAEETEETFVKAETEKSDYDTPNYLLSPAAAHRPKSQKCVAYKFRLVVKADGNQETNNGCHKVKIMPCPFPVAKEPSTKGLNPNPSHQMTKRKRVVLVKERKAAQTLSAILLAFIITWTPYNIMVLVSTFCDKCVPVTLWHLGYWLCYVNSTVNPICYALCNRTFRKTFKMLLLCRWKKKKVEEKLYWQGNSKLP

[5] = target: T2, Neuropeptide Y receptor type 2 (Homo sapiens, UniProt P49146); type: cell membranes, Membrane; conditions: kan-ts; note: in other assays of this panel Not Active means under 50% inhibition at 10 µM
T2 sequence (P49146 whole entry): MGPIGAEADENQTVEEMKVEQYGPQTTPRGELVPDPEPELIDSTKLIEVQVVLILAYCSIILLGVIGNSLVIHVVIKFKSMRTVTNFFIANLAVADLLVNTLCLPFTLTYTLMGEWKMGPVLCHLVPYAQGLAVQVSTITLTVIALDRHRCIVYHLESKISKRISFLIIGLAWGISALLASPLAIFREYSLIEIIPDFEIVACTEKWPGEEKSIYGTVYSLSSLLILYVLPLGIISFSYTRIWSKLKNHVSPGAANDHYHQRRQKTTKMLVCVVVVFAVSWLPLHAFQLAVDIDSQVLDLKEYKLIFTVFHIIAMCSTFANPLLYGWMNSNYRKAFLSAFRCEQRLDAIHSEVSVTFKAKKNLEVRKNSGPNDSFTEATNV

[6] = DRUGMATRIX: Phosphodiesterase PDE4 enzyme inhibition (substrate: [3H]cAMP + cAMP); conditions: u-937; Not Active = under 50% inhibition at 10 µM
[7] = target: T3, Neutrophil elastase (Homo sapiens, UniProt P08246); type: tissue-based;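 note: inhibition of neutrophil elastase enzyme activity, measured with a p-nitroanilide-linked peptide substrate; in other assays of this panel Not Active means under 50% inhibition at 10 µM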
T3 sequence (P08246 whole entry): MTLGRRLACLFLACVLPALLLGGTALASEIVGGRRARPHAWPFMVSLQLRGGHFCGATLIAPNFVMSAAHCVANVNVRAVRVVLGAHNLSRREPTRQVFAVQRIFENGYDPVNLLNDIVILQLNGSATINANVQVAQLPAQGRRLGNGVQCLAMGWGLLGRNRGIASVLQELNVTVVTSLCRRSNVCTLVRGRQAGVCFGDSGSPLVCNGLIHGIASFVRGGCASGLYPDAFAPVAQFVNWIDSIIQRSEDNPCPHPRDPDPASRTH

[8] = target: T4, 5-hydroxytryptamine receptor 1A (Rattus norvegicus, UniProt P19327); type: cell membranes, Membrane; conditions: cho-k1; note: in other assays of this panel Not Active means under 50% inhibition at 10 µM
T4 sequence (P19327 whole entry): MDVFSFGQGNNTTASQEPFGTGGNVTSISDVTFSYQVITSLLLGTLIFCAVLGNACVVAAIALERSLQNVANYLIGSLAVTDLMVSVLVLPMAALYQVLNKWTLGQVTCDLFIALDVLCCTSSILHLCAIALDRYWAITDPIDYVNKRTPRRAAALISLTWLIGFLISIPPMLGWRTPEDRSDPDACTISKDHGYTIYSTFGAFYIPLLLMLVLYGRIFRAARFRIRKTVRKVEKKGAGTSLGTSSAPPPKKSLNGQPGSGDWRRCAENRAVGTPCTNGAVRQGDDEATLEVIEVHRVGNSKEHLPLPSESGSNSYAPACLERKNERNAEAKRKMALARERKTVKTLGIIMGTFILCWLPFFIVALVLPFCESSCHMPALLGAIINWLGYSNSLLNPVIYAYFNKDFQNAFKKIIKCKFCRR

CCCCOc1ccc(OCCCN2CCOCC2)cc1 [PRAMOXINE]
Not Active: IC50 [1] | Ki [1] | IC50 [2] | Ki [2] | IC50 [3] | Ki [3] | IC50 [4] | IC50 [5] | IC50 [6] | Ki [6] | IC50 [7] | IC50 [8]

O=C(C1CCCCC1)N1CC(=O)N2CCc3ccccc3C2C1 (configuration not stated) [PRAZIQUANTEL]
Not Active: IC50 [1] | Ki [1] | IC50 [2] | Ki [2] | IC50 [3] | Ki [3] | IC50 [4] | IC50 [5] | IC50 [6] | Ki [6] | IC50 [7] | IC50 [8]

CCN(CC)CCOC(=O)c1ccc(N)cc1 [PROCAINE]
Not Active: IC50 [1] | Ki [1] | IC50 [2] | Ki [2] | IC50 [3] | Ki [3] | IC50 [4] | IC50 [5] | IC50 [6] | Ki [6] | IC50 [7] | IC50 [8]

CCCN(CCC)C(=O)C(CCC(=O)O)NC(=O)c1ccccc1 (configuration not stated) [PROGLUMIDE]
Not Active: IC50 [1] | Ki [1] | IC50 [2] | Ki [2] | IC50 [3] | Ki [3] | IC50 [4] | IC50 [5] | IC50 [6] | Ki [6] | IC50 [7] | IC50 [8]

NC(=O)c1cnccn1 [PYRAZINAMIDE]
Not Active: IC50 [1] | Ki [1] | IC50 [2] | Ki [2] | IC50 [3] | Ki [3] | IC50 [4] | IC50 [5] | IC50 [6] | Ki [6] | IC50 [7] | IC50 [8]

Cc1cc2cc3c(C)cc(=O)oc3c(C)c2o1 [TRIOXSALEN]
Not Active: IC50 [1] | Ki [1] | IC50 [2] | Ki [2] | IC50 [3] | Ki [3] | IC50 [4] | IC50 [5] | IC50 [6] | Ki [6] | IC50 [7] | IC50 [8]

CCCC(CCC)C(=O)O [VALPROIC ACID]
Not Active: IC50 [1] | Ki [1] | IC50 [2] | Ki [2] | IC50 [3] | Ki [3] | IC50 [4] | IC50 [5] | IC50 [6] | Ki [6] | IC50 [7] | IC50 [8]

CCC1=C[C@@H]2CN(C1)Cc1c([nH]c3ccccc13)[C@@](C(=O)OC)(c1cc3c(cc1OC)N(C)[C@H]1[C@@](O)(C(=O)OC)[C@H](OC(C)=O)[C@]4(CC)C=CCN5CC[C@]31[C@@H]54)C2 [VINORELBINE]
Not Active: IC50 [1] | Ki [1] | IC50 [2] | Ki [2] | IC50 [3] | Ki [3] | IC50 [4] | IC50 [5] | IC50 [6] | Ki [6] | IC50 [7] | IC50 [8]

CADMIUM DICHLORIDE
Not Active: IC50 [1] | Ki [1] | IC50 [2] | Ki [2] | IC50 [3] | Ki [3] | IC50 [4] | Ki [4] | IC50 [5] | Ki [5] | IC50 [6] | Ki [6] | IC50 [7] | Ki [7] | IC50 [8] | Ki [8]
